Data as given in US20050244592A1, “Recording paper and image recording method” (FUJI XEROX CO., LTD., priority 2004, published 2005).

Test: Solubility of the carboxylic acid in pure water
Conditions: maximum dissolution based on 100 g of pure water at 20° C.

Row | Compound | Solubility
1 | O=C(O)c1nc(C(=O)O)c(C(=O)O)c(C(=O)O)c1C(=O)O [Pyridine pentacarboxylic acid] | 10 g/100 g
2 | Furan carboxylic acid | 7 g/100 g
